Source: publication PMC5564600 (Oncotarget, 2017)
Where two headings read alike, the source gives them in different places.

How the values were obtained:
Assay in all cases: biochemical
Format in all cases: binding
panel of 442 kinases [1] = biological target: T1, panel of 442 kinases (Homo sapiens, UniProt Q13131); conditions: AMPK-alpha1; for remaining activity at 1 µM: read-out: % of control at 1 µM
T1 construct: purchased Ambit Biosciences (scanMAXX KINOMEscan)

panel of 442 kinases [2] = biological target: T2, panel of 442 kinases (Homo sapiens, UniProt Q9Y5S2); conditions: kinase MRCKB; for remaining activity at 1 µM: read-out: % of control at 1 µM
T2 construct: purchased Ambit Biosciences (scanMAXX KINOMEscan)

panel of 442 kinases [3] = biological target: T3, panel of 442 kinases (Homo sapiens, UniProt Q6DT37); conditions: DMPK2; for remaining activity at 1 µM: read-out: % of control at 1 µM
T3 construct: purchased Ambit Biosciences (scanMAXX KINOMEscan)

panel of 442 kinases [4] = biological target: T4, panel of 442 kinases (Homo sapiens, UniProt P45983); conditions: kinase JNK1; for remaining activity at 1 µM: read-out: % of control at 1 µM
T4 construct: purchased Ambit Biosciences (scanMAXX KINOMEscan)

panel of 442 kinases [5] = biological target: T5, panel of 442 kinases (Homo sapiens, UniProt P00519, Q252H); conditions: for remaining activity at 1 µM: read-out: % of control at 1 µM; for remaining activity at 10 µM: read-out: % of control at 10 µM
T5 construct: purchased Ambit Biosciences (scanMAXX KINOMEscan)

panel of 442 kinases [6] = biological target: T6, panel of 442 kinases (Homo sapiens, UniProt P42345); conditions: kinase MTOR; for remaining activity at 1 µM: read-out: % of control at 1 µM
T6 construct: purchased Ambit Biosciences (scanMAXX KINOMEscan)

panel of 442 kinases [7] = biological target: T7, panel of 442 kinases (Homo sapiens, UniProt Q96RR4); conditions: CAMKK2; for remaining activity at 1 µM: read-out: % of control at 1 µM
T7 construct: purchased Ambit Biosciences (scanMAXX KINOMEscan)

panel of 442 kinases [8] = biological target: T8, panel of 442 kinases (Homo sapiens, UniProt P00519, M351T); conditions: ABL1(M351T)-phosphorylated; for remaining activity at 1 µM: read-out: % of control at 1 µM
T8 construct: purchased Ambit Biosciences (scanMAXX KINOMEscan)

panel of 442 kinases [9] = biological target: T9, panel of 442 kinases (Homo sapiens, UniProt P21127); conditions: CDC2L1; for remaining activity at 1 µM: read-out: % of control at 1 µM
T9 construct: purchased Ambit Biosciences (scanMAXX KINOMEscan)

panel of 442 kinases [10] = biological target: T10, panel of 442 kinases (Homo sapiens, UniProt Q15375); conditions: EPHA7; for remaining activity at 1 µM: read-out: % of control at 1 µM
T10 construct: purchased Ambit Biosciences (scanMAXX KINOMEscan)

panel of 442 kinases [11] = biological target: T11, panel of 442 kinases (Homo sapiens, UniProt O60285); conditions: ARK5; for remaining activity at 1 µM: read-out: % of control at 1 µM
T11 construct: purchased Ambit Biosciences (scanMAXX KINOMEscan)
T11 sequence (O60285 1-661): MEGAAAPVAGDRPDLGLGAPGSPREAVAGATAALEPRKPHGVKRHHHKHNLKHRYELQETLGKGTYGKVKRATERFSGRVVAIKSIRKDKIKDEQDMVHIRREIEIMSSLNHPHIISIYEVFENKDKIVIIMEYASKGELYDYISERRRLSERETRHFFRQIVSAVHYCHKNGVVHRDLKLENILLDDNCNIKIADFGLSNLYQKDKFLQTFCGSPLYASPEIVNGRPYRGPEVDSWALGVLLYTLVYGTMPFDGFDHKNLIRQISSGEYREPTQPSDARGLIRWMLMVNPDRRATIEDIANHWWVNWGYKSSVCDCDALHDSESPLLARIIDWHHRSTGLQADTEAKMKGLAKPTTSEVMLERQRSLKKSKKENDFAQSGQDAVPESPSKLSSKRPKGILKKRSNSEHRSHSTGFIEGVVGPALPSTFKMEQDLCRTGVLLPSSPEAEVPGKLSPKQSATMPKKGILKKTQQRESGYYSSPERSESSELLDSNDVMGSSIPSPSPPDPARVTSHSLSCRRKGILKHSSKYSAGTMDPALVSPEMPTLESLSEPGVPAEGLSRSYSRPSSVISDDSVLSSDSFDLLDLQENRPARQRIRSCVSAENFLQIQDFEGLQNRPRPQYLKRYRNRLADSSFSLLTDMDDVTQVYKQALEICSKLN

panel of 442 kinases [12] = biological target: T12, panel of 442 kinases (Homo sapiens, UniProt Q99759); conditions: kinase MAP3K3; for remaining activity at 1 µM: read-out: % of control at 1 µM
T12 construct: purchased Ambit Biosciences (scanMAXX KINOMEscan)
T12 sequence (Q99759 1-626): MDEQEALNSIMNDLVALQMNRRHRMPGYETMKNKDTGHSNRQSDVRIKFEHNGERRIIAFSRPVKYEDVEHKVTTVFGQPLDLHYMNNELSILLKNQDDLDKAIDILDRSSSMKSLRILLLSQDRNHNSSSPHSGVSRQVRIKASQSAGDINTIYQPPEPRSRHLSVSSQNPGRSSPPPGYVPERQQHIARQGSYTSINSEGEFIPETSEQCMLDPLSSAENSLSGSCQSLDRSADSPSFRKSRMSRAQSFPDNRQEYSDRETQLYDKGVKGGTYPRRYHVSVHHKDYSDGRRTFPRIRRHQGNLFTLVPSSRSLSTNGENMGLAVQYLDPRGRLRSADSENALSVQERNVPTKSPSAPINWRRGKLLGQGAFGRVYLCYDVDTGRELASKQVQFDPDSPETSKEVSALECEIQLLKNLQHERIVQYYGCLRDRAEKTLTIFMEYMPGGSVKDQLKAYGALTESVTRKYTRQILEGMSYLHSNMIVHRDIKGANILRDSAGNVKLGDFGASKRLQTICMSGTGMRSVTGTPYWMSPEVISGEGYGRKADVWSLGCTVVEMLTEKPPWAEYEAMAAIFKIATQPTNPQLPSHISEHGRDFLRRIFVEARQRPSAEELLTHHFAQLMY

panel of 442 kinases [13] = biological target: T13, panel of 442 kinases (Homo sapiens, UniProt P78362); conditions: kinase SRPK2; for remaining activity at 1 µM: read-out: SRPK2 (% of control at 1 µM)
T13 construct: purchased Ambit Biosciences (scanMAXX KINOMEscan)

panel of 442 kinases [14] = biological target: T14, panel of 442 kinases (Homo sapiens, UniProt P54764); conditions: EPHA4; for remaining activity at 1 µM: read-out: % of control at 1 µM
T14 construct: purchased Ambit Biosciences (scanMAXX KINOMEscan)

panel of 442 kinases [15] = biological target: T15, panel of 442 kinases (Homo sapiens, UniProt P10721, D816V); conditions: kinase KIT(D816V), second of two lines so named (r207); for remaining activity at 1 µM: read-out: % of control at 1 µM
T15 construct: purchased Ambit Biosciences (scanMAXX KINOMEscan)

panel of 442 kinases [16] = biological target: T16, panel of 442 kinases (Homo sapiens, UniProt Q13627); conditions: DYRK1A; for remaining activity at 1 µM: read-out: % of control at 1 µM
T16 construct: purchased Ambit Biosciences (scanMAXX KINOMEscan)

panel of 442 kinases [17] = biological target: T17, panel of 442 kinases (Homo sapiens, UniProt P00519, Y253F); conditions: ABL1(Y253F)-phosphorylated; for remaining activity at 1 µM: read-out: % of control at 1 µM
T17 construct: purchased Ambit Biosciences (scanMAXX KINOMEscan)

[18] = 10 µM, read-out: % of control at 10 µM

T13 sequence (P78362 whole entry): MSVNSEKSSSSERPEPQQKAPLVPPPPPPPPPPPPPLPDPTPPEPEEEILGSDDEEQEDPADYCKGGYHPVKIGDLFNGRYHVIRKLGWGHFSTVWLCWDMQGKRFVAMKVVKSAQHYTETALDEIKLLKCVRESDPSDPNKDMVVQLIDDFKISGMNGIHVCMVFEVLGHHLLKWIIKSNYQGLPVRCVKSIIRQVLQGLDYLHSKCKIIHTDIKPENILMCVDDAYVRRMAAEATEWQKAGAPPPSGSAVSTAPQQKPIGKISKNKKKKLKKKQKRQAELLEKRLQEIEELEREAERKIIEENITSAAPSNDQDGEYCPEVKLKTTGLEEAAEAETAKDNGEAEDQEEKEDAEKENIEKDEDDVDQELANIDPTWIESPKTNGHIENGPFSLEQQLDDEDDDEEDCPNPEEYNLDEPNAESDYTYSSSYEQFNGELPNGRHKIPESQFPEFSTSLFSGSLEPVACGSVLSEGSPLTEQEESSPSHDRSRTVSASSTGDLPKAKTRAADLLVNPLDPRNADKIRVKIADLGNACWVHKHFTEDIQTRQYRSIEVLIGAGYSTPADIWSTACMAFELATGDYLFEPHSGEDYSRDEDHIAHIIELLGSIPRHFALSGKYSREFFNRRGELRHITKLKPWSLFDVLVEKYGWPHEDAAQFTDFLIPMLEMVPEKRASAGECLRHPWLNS
T2 sequence (Q9Y5S2 whole entry): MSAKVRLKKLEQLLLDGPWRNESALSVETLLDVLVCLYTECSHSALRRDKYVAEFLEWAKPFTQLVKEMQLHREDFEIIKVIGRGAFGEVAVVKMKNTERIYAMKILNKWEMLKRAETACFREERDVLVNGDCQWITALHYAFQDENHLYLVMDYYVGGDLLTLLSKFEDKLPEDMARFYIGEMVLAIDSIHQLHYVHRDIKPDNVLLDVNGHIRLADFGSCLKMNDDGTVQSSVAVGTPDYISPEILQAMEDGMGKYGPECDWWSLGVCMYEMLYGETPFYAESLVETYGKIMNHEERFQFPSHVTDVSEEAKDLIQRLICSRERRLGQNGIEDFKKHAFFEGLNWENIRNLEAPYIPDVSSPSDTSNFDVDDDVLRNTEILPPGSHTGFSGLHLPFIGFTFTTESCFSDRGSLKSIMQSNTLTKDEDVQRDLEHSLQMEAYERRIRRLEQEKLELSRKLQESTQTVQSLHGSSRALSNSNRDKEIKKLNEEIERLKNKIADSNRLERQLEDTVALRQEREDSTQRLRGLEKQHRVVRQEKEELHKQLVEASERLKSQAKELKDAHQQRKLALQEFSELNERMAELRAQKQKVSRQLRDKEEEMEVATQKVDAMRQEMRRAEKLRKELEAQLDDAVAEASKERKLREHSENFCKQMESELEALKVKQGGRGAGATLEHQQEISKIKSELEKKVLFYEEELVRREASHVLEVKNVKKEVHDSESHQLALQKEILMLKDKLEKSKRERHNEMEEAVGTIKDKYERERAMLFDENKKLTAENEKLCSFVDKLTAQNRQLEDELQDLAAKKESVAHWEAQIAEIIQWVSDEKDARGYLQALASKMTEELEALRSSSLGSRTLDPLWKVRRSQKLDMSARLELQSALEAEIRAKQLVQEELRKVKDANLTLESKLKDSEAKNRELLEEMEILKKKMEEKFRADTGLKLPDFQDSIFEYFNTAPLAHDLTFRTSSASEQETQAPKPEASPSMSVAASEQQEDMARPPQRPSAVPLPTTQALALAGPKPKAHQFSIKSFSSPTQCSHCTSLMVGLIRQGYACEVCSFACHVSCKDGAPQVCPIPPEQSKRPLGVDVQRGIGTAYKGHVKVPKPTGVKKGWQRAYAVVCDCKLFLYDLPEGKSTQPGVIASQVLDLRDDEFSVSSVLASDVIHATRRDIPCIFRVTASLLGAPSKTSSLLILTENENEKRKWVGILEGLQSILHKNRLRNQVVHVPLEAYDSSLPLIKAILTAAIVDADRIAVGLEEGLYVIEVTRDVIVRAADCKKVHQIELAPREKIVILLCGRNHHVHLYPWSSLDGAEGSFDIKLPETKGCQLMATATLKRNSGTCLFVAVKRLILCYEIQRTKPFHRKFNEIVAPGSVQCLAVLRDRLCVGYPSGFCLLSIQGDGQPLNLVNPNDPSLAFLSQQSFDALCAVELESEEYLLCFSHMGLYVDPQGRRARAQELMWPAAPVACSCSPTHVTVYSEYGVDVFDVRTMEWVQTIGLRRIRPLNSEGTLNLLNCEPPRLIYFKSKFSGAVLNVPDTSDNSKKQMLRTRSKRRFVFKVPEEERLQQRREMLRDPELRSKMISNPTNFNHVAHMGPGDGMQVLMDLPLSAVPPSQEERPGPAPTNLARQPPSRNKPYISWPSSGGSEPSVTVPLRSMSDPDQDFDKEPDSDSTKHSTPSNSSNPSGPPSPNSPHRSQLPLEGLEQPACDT
T4 sequence (P45983 whole entry): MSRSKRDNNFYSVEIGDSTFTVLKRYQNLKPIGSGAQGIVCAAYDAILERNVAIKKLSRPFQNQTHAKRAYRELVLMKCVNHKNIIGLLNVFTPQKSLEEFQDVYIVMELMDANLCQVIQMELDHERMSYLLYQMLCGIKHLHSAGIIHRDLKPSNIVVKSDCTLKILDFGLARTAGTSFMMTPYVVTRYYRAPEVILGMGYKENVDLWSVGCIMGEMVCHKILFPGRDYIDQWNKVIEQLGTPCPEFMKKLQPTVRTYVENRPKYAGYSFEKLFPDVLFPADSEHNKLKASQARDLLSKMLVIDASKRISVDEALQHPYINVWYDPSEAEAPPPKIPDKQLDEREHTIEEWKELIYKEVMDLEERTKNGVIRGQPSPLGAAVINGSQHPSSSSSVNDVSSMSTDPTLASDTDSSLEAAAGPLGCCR
T9 sequence (P21127 whole entry): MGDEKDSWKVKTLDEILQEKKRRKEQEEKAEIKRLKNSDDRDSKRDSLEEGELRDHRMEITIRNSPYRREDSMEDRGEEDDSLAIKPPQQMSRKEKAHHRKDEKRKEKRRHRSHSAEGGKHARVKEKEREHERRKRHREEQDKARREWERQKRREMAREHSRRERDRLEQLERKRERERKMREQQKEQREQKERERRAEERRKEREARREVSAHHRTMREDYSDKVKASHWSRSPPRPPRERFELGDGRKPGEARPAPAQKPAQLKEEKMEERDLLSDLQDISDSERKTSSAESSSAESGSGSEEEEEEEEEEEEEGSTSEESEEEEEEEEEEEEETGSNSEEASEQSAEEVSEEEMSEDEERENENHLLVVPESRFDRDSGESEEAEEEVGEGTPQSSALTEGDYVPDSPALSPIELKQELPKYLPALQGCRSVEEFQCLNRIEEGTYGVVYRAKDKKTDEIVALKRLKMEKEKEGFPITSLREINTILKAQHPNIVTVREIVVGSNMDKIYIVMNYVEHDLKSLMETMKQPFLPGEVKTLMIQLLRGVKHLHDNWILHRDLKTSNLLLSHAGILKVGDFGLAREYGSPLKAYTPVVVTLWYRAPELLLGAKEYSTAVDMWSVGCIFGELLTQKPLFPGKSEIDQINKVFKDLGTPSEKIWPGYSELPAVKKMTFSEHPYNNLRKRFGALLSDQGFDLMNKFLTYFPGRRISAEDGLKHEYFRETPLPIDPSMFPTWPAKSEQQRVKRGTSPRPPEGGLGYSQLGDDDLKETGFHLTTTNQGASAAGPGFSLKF
T15 sequence (P10721 26-976 D816V): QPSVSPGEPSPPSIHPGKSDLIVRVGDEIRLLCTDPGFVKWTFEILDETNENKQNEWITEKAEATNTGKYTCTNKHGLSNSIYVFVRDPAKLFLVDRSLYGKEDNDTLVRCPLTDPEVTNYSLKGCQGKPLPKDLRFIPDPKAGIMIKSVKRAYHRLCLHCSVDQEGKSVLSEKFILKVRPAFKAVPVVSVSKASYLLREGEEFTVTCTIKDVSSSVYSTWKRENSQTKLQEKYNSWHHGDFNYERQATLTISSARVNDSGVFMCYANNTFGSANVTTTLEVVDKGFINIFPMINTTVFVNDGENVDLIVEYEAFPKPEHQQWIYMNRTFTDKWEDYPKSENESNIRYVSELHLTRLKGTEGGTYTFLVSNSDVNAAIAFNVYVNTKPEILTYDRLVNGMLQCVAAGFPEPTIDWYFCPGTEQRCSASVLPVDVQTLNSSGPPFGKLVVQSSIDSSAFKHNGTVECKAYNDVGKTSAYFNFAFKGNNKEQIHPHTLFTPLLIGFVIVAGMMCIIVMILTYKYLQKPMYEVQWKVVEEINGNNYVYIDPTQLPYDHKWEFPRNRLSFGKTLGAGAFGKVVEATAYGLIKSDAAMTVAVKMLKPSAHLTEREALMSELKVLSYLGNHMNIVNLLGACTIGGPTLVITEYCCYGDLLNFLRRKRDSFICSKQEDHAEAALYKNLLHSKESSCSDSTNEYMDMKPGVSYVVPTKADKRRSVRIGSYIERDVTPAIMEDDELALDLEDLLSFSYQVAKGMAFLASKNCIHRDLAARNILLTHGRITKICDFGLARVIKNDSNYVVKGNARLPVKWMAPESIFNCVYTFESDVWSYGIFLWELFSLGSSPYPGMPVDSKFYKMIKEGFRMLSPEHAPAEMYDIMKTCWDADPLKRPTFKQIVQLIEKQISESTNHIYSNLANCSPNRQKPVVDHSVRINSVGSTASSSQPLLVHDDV

Row | Structure (SMILES) | remaining activity at 1 µM (panel of 442 kinases [1]) [%] | remaining activity at 1 µM (panel of 442 kinases [2]) [%] | remaining activity at 1 µM (panel of 442 kinases [3]) [%] | remaining activity at 1 µM (panel of 442 kinases [4]) [%] | remaining activity at 1 µM (panel of 442 kinases [5]; ABL1(Q252H)-nonphosphorylated) [%] | remaining activity at 1 µM (panel of 442 kinases [5]; ABL1(Q252H)-phosphorylated) [%] | remaining activity at 1 µM (panel of 442 kinases [6]) [%] | remaining activity at 1 µM (panel of 442 kinases [7]) [%] | remaining activity at 1 µM (panel of 442 kinases [8]) [%] | remaining activity at 1 µM (panel of 442 kinases [9]) [%] | remaining activity at 1 µM (panel of 442 kinases [10]) [%] | remaining activity at 1 µM (panel of 442 kinases [11]) [%] | remaining activity at 1 µM (panel of 442 kinases [12]) [%] | remaining activity at 1 µM (panel of 442 kinases [13]) [%] | remaining activity at 1 µM (panel of 442 kinases [14]) [%] | remaining activity at 1 µM (panel of 442 kinases [15]) [%] | remaining activity at 1 µM (panel of 442 kinases [16]) [%] | remaining activity at 1 µM (panel of 442 kinases [17]) [%] | also measured
1 | Nc1cc(C(F)(F)F)c(-c2cc(N3CCOCC3)nc(N3CCOCC3)n2)cn1 [Buparlisib] | 96 | 100 | 100 | 98 | 100 | 72 | 20 | 100 | 90 | 85 | 100 | 100 | 98 | 78 | 98 | 100 | 80 | 85 | remaining activity at 10 µM (panel of 442 kinases [1]; [18]): 100%; remaining activity at 10 µM (panel of 442 kinases [2]; [18]): 100%; remaining activity at 10 µM (panel of 442 kinases [3]; [18]): 100%; remaining activity at 10 µM (panel of 442 kinases [4]; [18]): 100%; remaining activity at 10 µM (panel of 442 kinases [5]; ABL1(Q252H)-nonphosphorylated): 100%; remaining activity at 10 µM (panel of 442 kinases [5]; ABL1(Q252H)-phosphorylated): 100%; remaining activity at 10 µM (panel of 442 kinases [6]; [18]): 4.6%; remaining activity at 10 µM (panel of 442 kinases [7]; [18]): 100%; remaining activity at 10 µM (panel of 442 kinases [8]; [18]): 97%; remaining activity at 10 µM (panel of 442 kinases [9]; [18]): 92%; remaining activity at 10 µM (panel of 442 kinases [10]; [18]): 100%; remaining activity at 10 µM (panel of 442 kinases [11]; [18]): 100%; remaining activity at 10 µM (panel of 442 kinases [12]; [18]): 100%; remaining activity at 10 µM (panel of 442 kinases [13]; 10 µM, read-out: SRPK2 (% of control at 10 µM)): 100%; remaining activity at 10 µM (panel of 442 kinases [14]; [18]): 100%; remaining activity at 10 µM (panel of 442 kinases [15]; [18]): 100%; remaining activity at 10 µM (panel of 442 kinases [16]; [18]): 51%; remaining activity at 10 µM (panel of 442 kinases [17]; [18]): 94%
2 | Cn1c(=O)n(-c2ccc(C(C)(C)C#N)cc2)c2c3cc(-c4cnc5ccccc5c4)ccc3ncc21 [Dactolisib, 2-methyl-2-[4-(3-methyl-2-oxo-8-quinolin-3-yl-2,3-dihydroimidazo[4,5-c]quinolin-1-yl)-phenyl] propionitrile] | 97 | 86 | 81 | 84 | 57 | 59 | 0 | 52 | 89 | 100 | 100 | 32 | 81 | 100 | 97 | 59 | 100 | 82 | 
3 | COc1ncc(-c2ccc3nccc(-c4ccnnc4)c3c2)cc1NS(=O)(=O)c1ccc(F)cc1F [Omipalisib] | 100 | 100 | 100 | 100 | 100 | 100 | 0 | 71 | 94 | 96 | 100 | 100 | 100 | 100 | 100 | 86 | 100 | 100 | 
4 | FC(F)c1nc2ccccc2n1-c1nc(N2CCOCC2)nc(N2CCOCC2)n1 [ZSTK474, 2-(difluoromethyl)-1-[4,6-di(4-morpholinyl)-1,3,5-triazin-2-yl]-1H-benzimidazole] | 100 | 80 | 88 | 86 | 100 | 100 | 0.75 | 100 | 100 | 88 | 100 | 100 | 74 | 100 | 96 | 100 | 100 | 96 | 
